Each compound was assayed against human P2X7 receptor (Homo sapiens, UniProt Q99572, R270H/Y155H) (assay: Evaluation of human P2X7 receptor inhibitory activity (Yo-Pro uptake, BzATP stimulation, FLIPR TETRA)). Conditions: 1321N1 cells stably expressing human P2X7 receptor; BzATP stimulation, Yo-Pro uptake; read-out: IC50 (antagonistic activity for the human P2X7 receptor).
Format: cell-based
Procedure: Stably expressing cell line (1321N1 cell transfected with the human P2X7 receptor gene (GenBank accession number NM_002562.5 including T606C and G952A SNP)) was used. The cells were seeded in a 384-well microtiter plate at a concentration of 8000 cells/well and cultured in the medium (10% fetal bovine serum, 25 mM HEPES, 1% penicillin and streptomycin in DMEM) for one day at 37° C. under 5% carbon dioxide atmosphere. After replacing with 20 μL of the HBSS buffer (20 mM HEPES, 55.6 mM D-glucose, 1×HBSS(−), pH7.4-7.5), 15 μL of 17.3 μM Yo-Pro solution in the HBSS buffer was added. The plate was placed in high-throughput cellular screening system FLIPR TETRA (Molecullar Devices, LLC.) and 15 μL of 130 μM BzATP solution in the HBSS buffer was added. Measurement of fluorescence intensity by FLIPR TETRA was started. After eight minutes, 15 μL of DMSO solutions containing different concentrations of the compound of the present invention as prepared by dilution with the HBSS buffer were dispensed to each well through the built-in automatic dispenser, and the measurement of fluorescence intensity was continued for 20 minutes. […] Changing values of fluorescence intensity by the compound of the present invention were calculated by difference between maximum and minimum fluorescence intensity for 20 minutes. Inhibition ratios (%) were calculated from the following equation:
[formula] IC50 was calculated using logistic approximation.

Compound | IC50
COc1cn(Cc2ccc(Cl)cc2)c(Nc2cc(C)c(C)cc2C)nc1=O [Compound I-0193] | 18 nM
CCc1cc2c(cc1Nc1nc(=O)c(OC)cn1Cc1ccc(Cl)cc1)CCC2 [Compound I-0195] | 26 nM
CCOC(=O)c1cn(Cc2ccccc2)c(Nc2cc(C)c(C)cc2C)nc1=O [Compound I-0196] | 13 nM
Cc1c(Cl)cccc1Nc1nc(=O)c(O)cn1Cc1ccccc1 [Compound I-0203] | 18 nM
Cc1cc(C)c(Nc2nc(=O)c(C(=O)O)cn2Cc2ccccc2)cc1C [Compound I-0205] | 91 nM
Cc1ccc(N2CCCS2(=O)=O)cc1Nc1nc(=O)c(F)cn1Cc1ccc(F)cc1 [Compound I-0207] | 9 nM
Cc1cc(C)c(Nc2nc(=O)c(C(N)=O)cn2Cc2ccccc2)cc1C [Compound I-0218] | 19 nM
CCc1cc2c(cc1Nc1nc(=O)c(OC)cn1Cc1ccc(F)c(Cl)c1)CCC2 [Compound I-0242] | 12 nM

Same assay, conditions: 1321N1 cells stably expressing human P2X7 receptor; BzATP stimulation, Yo-Pro uptake; read-out: IC50 (antagonistic activity for the human P2X7 receptor), class symbol

Compound | IC50
COc1cn(Cc2ccccc2Cl)c(Nc2cc(C)c(C)cc2C)nc1=O [Compound I-0192] | 10 to 100 nM
CCc1cc2c(cc1Nc1nc(=O)c(OC)cn1Cc1ccccc1Cl)CCC2 [Compound I-0194] | 10 to 100 nM
COc1cn(Cc2ccccc2)c(Nc2cccc(Oc3ccccn3)c2C)nc1=O [Compound I-0198] | 100 to 500 nM
CCc1ccccc1Nc1nc(=O)c(OC)cn1Cc1ccc(F)cc1 [Compound I-0200] | 10 to 100 nM
COc1cn(Cc2ccccc2)c(N[C@@H]2CCc3ccccc32)nc1=O [Compound I-0201] | 500 to 1000 nM
COc1cn(Cc2ccccc2)c(Nc2ccc(N3CCOCC3)cc2C)nc1=O [Compound I-0204] | 100 to 500 nM
CCOc1cc(C)c(Nc2nc(=O)c(OC)cn2Cc2ccccc2)cc1C [Compound I-0206] | 10 to 100 nM
COc1cc(C)c(Nc2nc(=O)c(OC)cn2Cc2cccc(Cl)c2)cc1OC [Compound I-0208] | < 10 nM
COc1cc(C)c(Nc2nc(=O)c(F)cn2Cc2ccc(F)cc2)cc1OC [Compound I-0209] | < 10 nM
CCc1ccc(Nc2nc(=O)c(OC)cn2Cc2ccccc2)c(CC)c1 [Compound I-0210] | 10 to 100 nM
CCc1ccc(CC)c(Nc2nc(=O)c(OC)cn2Cc2ccccc2)c1 [Compound I-0211] | < 10 nM
CCc1c(Nc2nc(=O)c(OC)cn2Cc2ccccc2)cccc1OC [Compound I-0212] | < 10 nM
CCc1c(Nc2nc(=O)c(OC)cn2Cc2ccc(F)cc2)cccc1OC [Compound I-0213] | < 10 nM
CCc1c(Nc2nc(=O)c(OC)cn2Cc2cccc(Cl)c2)cccc1OC [Compound I-0214] | < 10 nM
CCc1c(Cl)cccc1Nc1nc(=O)c(OC)cn1Cc1ccccc1 [Compound I-0215] | < 10 nM
Cc1c(Cl)cccc1Nc1nc(=O)c(C(F)(F)F)cn1Cc1ccccc1 [Compound I-0216] | 100 to 500 nM
COc1cn(Cc2ccccc2)c(Nc2cccc(N(C)C)c2C)nc1=O [Compound I-0217] | 10 to 100 nM
Cc1cc(C)c(Nc2nc(=O)c(C(=O)NC3CCOCC3)cn2Cc2ccccc2)cc1C [Compound I-0219] | 10 to 100 nM
COc1cc(C)c(Nc2nc(=O)c(OC)cn2Cc2ccccc2)cc1C [Compound I-0220] | < 10 nM
COc1cn(Cc2ccccc2)c(Nc2cc3[nH]ncc3cc2C)nc1=O [Compound I-0221] | 10 to 100 nM
COc1cn(Cc2ccc(F)c(F)c2)c(Nc2cccc(Cl)c2C)nc1=O [Compound I-0222] | < 10 nM
CCc1ccccc1Nc1nc(=O)c(F)cn1Cc1cccc(Cl)c1 [Compound I-0223] | 10 to 100 nM
Cc1cccc(Nc2nc(=O)c(F)cn2Cc2cccc(Cl)c2)c1C [Compound I-0224] | < 10 nM

Compound | IC50
CCc1ccccc1Nc1nc(=O)c(OC)cn1Cc1ccc(Cl)c(F)c1 [Compound I-0225] | 100 to 500 nM
Cc1cc(C)c(Nc2nc(=O)c(C(=O)NCC(=O)N(C)C)cn2Cc2ccccc2)cc1C [Compound I-0226] | 10 to 100 nM
COc1ccc(Nc2nc(=O)c(OC)cn2Cc2ccc(F)c(Cl)c2)c(C)c1 [Compound I-0227] | 10 to 100 nM
COc1cn(Cc2ccc(F)c(Cl)c2)c(Nc2cc(C(C)C)ccc2C)nc1=O [Compound I-0228] | 10 to 100 nM
COc1cc(C)c(Nc2nc(=O)c(OC)cn2Cc2ccc(F)c(Cl)c2)cc1OC [Compound I-0229] | < 10 nM
COc1cc(C)c(Nc2nc(=O)c(OC)cn2Cc2ccc(F)c(Cl)c2)cc1C [Compound I-0230] | < 10 nM
CCOc1cc(C)c(Nc2nc(=O)c(OC)cn2Cc2ccc(F)c(Cl)c2)cc1C [Compound I-0231] | < 10 nM
COc1cn(Cc2ccc(F)c(Cl)c2)c(Nc2cc(N3CCCS3(=O)=O)ccc2C)nc1=O [Compound I-0232] | < 10 nM
COc1cn(Cc2ccccc2)c(Nc2cc(C)c(Cl)cc2C)nc1=O [Compound I-0233] | < 10 nM
COc1ccc(Nc2nc(=O)c(OC)cn2Cc2cccc(Cl)c2)c(C)c1 [Compound I-0234] | 10 to 100 nM
CCc1cc(OC)ccc1Nc1nc(=O)c(OC)cn1Cc1ccccc1 [Compound I-0235] | 10 to 100 nM
CCc1ccc(OC)cc1Nc1nc(=O)c(OC)cn1Cc1ccccc1 [Compound I-0236] | 10 to 100 nM
COc1cn(Cc2ccccc2)c(Nc2cc(C)c(OC(F)F)cc2C)nc1=O [Compound I-0237] | < 10 nM
Cc1c(Cl)cccc1NC(=O)Cc1cn(Cc2ccccc2)c(Nc2cccc(Cl)c2C)nc1=O [Compound I-0238] | 100 to 500 nM
COc1cn(Cc2ccccc2)c(Nc2cc(-n3cccc3)ccc2C)nc1=O [Compound I-0239] | 100 to 500 nM
COc1cn(Cc2ccccc2)c(Nc2cc(-c3nnco3)ccc2C)nc1=O [Compound I-0240] | 10 to 100 nM
COc1cn(Cc2ccc(F)c(Cl)c2)c(Nc2ccc(OC(F)(F)F)cc2C)nc1=O [Compound I-0241] | 10 to 100 nM
COc1cn(Cc2ccc(F)c(Cl)c2)c(Nc2cc(C)c(C)cc2C)nc1=O [Compound I-0243] | < 10 nM
COc1cn(Cc2ccc(F)c(Cl)c2)c(Nc2cc(C)c(OC(F)F)cc2C)nc1=O [Compound I-0244] | < 10 nM
CCc1cc(OC)ccc1Nc1nc(=O)c(OC)cn1Cc1ccc(F)c(Cl)c1 [Compound I-0245] | < 10 nM
CCc1ccc(OC)cc1Nc1nc(=O)c(OC)cn1Cc1ccc(F)c(Cl)c1 [Compound I-0246] | < 10 nM
COc1cn(Cc2ccc(F)c(Cl)c2)c(Nc2cc(CO)c(C)cc2C)nc1=O [Compound I-0247] | < 10 nM
COc1cn(Cc2ccc(F)c(Cl)c2)c(Nc2ccc(N(C)C)cc2C)nc1=O [Compound I-0248] | 10 to 100 nM

Compound | IC50
COc1ccc(Nc2nc(=O)c(OC)cn2Cc2cccc(F)c2)c(C)c1 [Compound I-0249] | < 10 nM
COc1cc(C)c(Nc2nc(=O)c(OC)cn2Cc2cccc(Cl)c2)cc1C [Compound I-0250] | < 10 nM
CCc1ccc(OC)cc1Nc1nc(=O)c(OC)cn1Cc1cccc(F)c1 [Compound I-0251] | 10 to 100 nM
CCc1ccccc1Nc1nc(=O)c(OC)cn1Cc1ccc(F)c(Cl)c1 [Compound I-0252] | < 10 nM
CCc1ccc(OC)cc1Nc1nc(=O)c(OC)cn1Cc1ccc(F)cc1 [Compound I-0253] | 10 to 100 nM
CCc1ccc(OC)cc1Nc1nc(=O)c(OC)cn1Cc1cccc(Cl)c1 [Compound I-0254] | 10 to 100 nM
CCc1ccc(OC)cc1Nc1nc(=O)c(OC)cn1Cc1ccc(F)c(F)c1 [Compound I-0255] | < 10 nM
CCc1cc(OC)c(OC)cc1Nc1nc(=O)c(OC)cn1Cc1ccccc1 [Compound I-0256] | < 10 nM
CCOc1cc(C)c(Nc2nc(=O)c(OC)cn2Cc2cccc(F)c2)cc1C [Compound I-0257] | < 10 nM
CCOc1cc(C)c(Nc2nc(=O)c(OC)cn2Cc2ccc(F)cc2)cc1C [Compound I-0258] | < 10 nM
CCOc1cc(C)c(Nc2nc(=O)c(OC)cn2Cc2cccc(Cl)c2)cc1C [Compound I-0259] | < 10 nM
CCOc1cc(C)c(Nc2nc(=O)c(OC)cn2Cc2ccc(F)c(F)c2)cc1C [Compound I-0260] | < 10 nM
CCc1cc(OC)ccc1Nc1nc(=O)c(OC)cn1Cc1cccc(F)c1 [Compound I-0261] | < 10 nM
CCc1cc(OC)ccc1Nc1nc(=O)c(OC)cn1Cc1ccc(F)cc1 [Compound I-0262] | < 10 nM
CCc1cc(OC)ccc1Nc1nc(=O)c(OC)cn1Cc1cccc(Cl)c1 [Compound I-0263] | < 10 nM
CCc1cc(OC)ccc1Nc1nc(=O)c(OC)cn1Cc1ccc(F)c(F)c1 [Compound I-0264] | < 10 nM
CCc1cc(C)c(C)cc1Nc1nc(=O)c(OC)cn1Cc1ccccc1 [Compound I-0265] | < 10 nM
CCc1cc(OC)c(OC)cc1Nc1nc(=O)c(F)cn1Cc1ccccc1 [Compound I-0266] | < 10 nM
CCc1cc(OC)c(OC)cc1Nc1nc(=O)c(F)cn1Cc1ccc(F)cc1 [Compound I-0267] | < 10 nM
CCc1cc(OC)c(OC)cc1Nc1nc(=O)c(F)cn1Cc1ccc(F)c(Cl)c1 [Compound I-0268] | < 10 nM
CCc1cc(OC)c(OC)cc1Nc1nc(=O)c(OC)cn1Cc1cccc(F)c1 [Compound I-0269] | < 10 nM

— US10774051B2, “6-membered heterocyclic derivatives and pharmaceutical composition comprising the same” (Shionogi & Co., Ltd., priority 2015, dated 2020)
